PMC9605072, “Guanidine Derivatives of Quinazoline-2,4(1H,3H)-Dione as NHE-1 Inhibitors and Anti-Inflammatory Agents” (Life, 2022)
“Also recorded” adds a separate entry of the source.

What was measured:
[1] = system: rabbit platelets; experiment: ADP-induced platelet aggregation assay; assay type: cell-based; details: Oryctolagus cuniculus, m ± SD, n = 5
Method: Platelet aggregation was assessed on a two-channel laser analyzer “BIOLA-220 LA” (Russia) as described previously using rabbit platelets.

[2] = system: LPS-stimulated C57bl/6j peritoneal macrophages; experiment: LPS-induced nitric oxide synthesis in primary peritoneal macrophages (Griess); assay type: cell-based, mice; details: Mus musculus, Peritoneal macrophage, LPS 100 ng/mL, 22 h incubation, n = 3; for IC50: read-out: NO Synthesis IC50 ± SE
Method: (§1) Primary C57bl/6j murine macrophages were elicited with intraperitoneal injection of 3% peptone solution as per the standard procedure. Stimulation of inflammatory response was performed with E. coli O127:B8 LPS (100 ng/mL final concentration).
(§2) Nitric oxide was determined in culture supernatants as a nitrite anion with a standard Griess reagent after 22 h of incubation with test compounds at a wavelength of 550 nm with a microplate reader Infinite M200 PRO (Tecan GmbH, Grodig, Austria). Concentrations of IL-6 and TNF- α in cell supernatants were quantified with commercial ELISA kits according to the manufacturer’s instructions (Cloud-clone Corp., Katy, TX, USA).
(§3) Given our primary focus on the development of agents against cytokine-mediated tissue damage, we evaluated the target compounds as inhibitors of pro-inflammatory macrophage activation. Primary peritoneal macrophages were isolated from C57bl/6j mice, pooled, and stimulated with E. coli LPS as TLR4 agonist. Pro-inflammatory activation was assessed as nitric oxide (NO) synthesis and interleukin-6 (IL-6) secretion. The cytotoxicity of the compounds was monitored in parallel using the lactate dehydrogenase assay.

[3] = Cytotoxicity, lactate dehydrogenase (LDH) assay; assay type: cell-based, mice; details: C57bl/6j, mouse, primary peritoneal macrophages stimulated with E. coli LPS; LPS-stimulated macrophages; n = 3; read-out: LDH CC50 ± SE
Method: (§4) The activity of lactate dehydrogenase (LDH) in a cell culture medium was determined as reported by us previously with a microplate reader Infinite M200 PRO (Tecan, Austria).
as §3
(§5) In an attempt to identify safer alternatives to steroid anti-inflammatory agents, it is mandatory to evaluate lead compounds for immunodepressant activity. To do so, we determined the influence of compound 4a on macrophage phagocytosis after 72 h of incubation. Cell viability was monitored in parallel via the LDH assay.

[4] = molecular target: T1, rabbit platelet NHE-1 (Oryctolagus cuniculus, UniProt P23791); experiment: NHE-1 inhibition assay (rabbit platelets, laser aggregometer); assay type: cell-based; details: for inhibition at 0.01 µM: 10 nM, m ± SD, n = 6
T1 construct: endogenous in cells; host or cells: rabbit platelets
T1 sequence (P23791 whole entry): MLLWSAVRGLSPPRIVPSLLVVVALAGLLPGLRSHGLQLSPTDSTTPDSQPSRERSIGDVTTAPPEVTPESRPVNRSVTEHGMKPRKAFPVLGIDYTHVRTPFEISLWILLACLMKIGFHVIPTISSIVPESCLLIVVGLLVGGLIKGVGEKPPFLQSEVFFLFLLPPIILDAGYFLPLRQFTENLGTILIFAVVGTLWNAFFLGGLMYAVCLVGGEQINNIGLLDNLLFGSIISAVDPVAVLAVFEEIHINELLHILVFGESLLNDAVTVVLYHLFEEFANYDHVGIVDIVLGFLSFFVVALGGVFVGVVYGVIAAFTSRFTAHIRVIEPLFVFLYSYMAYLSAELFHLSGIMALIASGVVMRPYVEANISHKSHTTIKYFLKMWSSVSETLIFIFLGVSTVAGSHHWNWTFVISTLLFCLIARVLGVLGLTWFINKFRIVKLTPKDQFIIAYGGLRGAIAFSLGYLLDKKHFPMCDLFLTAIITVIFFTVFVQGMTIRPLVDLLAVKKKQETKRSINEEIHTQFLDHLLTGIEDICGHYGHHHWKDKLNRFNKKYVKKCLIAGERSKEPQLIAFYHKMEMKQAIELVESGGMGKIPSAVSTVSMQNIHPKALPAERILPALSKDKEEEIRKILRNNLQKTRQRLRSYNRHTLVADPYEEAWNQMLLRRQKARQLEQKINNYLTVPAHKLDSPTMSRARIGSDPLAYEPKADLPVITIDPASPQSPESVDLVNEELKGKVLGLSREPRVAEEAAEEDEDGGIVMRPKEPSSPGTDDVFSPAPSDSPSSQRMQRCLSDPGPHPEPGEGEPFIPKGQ
Method: Inhibition of rabbit platelet NHE-1 was determined according to the method of [8, 9] in our modification, which was reported by us previously using the laser aggregometer BIOLA-220 LA (Russia).
Target compounds were evaluated as inhibitors of rabbit platelet NHE-1 (Table 1). It was shown that the substitution of H^5 with bromine decreased the activity of compounds 3b and 4b, indicating possible steric limitations of the binding site.

[5] = system: male ICR mice; experiment: Tail suspension test (antidepressant activity); assay type: in vivo; details: mean ± SD, n = 6, vehicle 264.8 ± 11.6 s
Method: Antidepressant activity was determined on 36 male ICR mice weighing 22–25 g as described in [14] using the Panlab LE808 apparatus.
The tail suspension test was used to assess the antidepressant activity of the most-active NHE-1 inhibitors.

[6] = system: rat intraocular pressure; experiment: Intraocular pressure study (TonoVet); assay type: in vivo; details: rats, 0.4% eye drops; for Max IOP Reduction: m ± SD, n = 5; for IOP-lowering activity reduction relative to 4a: vs 4a
Method: Intraocular pressure was measured on 75 adult outbred rats of both sexes with a TonoVet device (Finland) as reported by us previously.
To access the influence on rat eye aqueous humor formation, the studied compounds were administered as 0.4% eye drops. […] Introduction of 5-bromine (4b) or acyclic guanidine N^1 , N^3 -side chains (3a) led to 2- and 3-fold activity reduction, respectively.

[7] = system: LPS-stimulated C57bl/6j peritoneal macrophages; experiment: LPS-induced IL-6 secretion in primary peritoneal macrophages (ELISA); assay type: cell-based, mice; details: Mus musculus, Peritoneal macrophage; LPS 100 ng/mL; n = 3; read-out: IL-6 Secretion IC50 ± SE
Method: as §1, §2, §3

[8] = system: C57bl/6j peritoneal macrophages; experiment: Cytotoxicity, lactate dehydrogenase (LDH) assay; assay type: cell-based, mice; details: 72 h of incubation, in parallel to phagocytosis
Method: as §4, §3, §5

[9] = system: C57bl/6j peritoneal macrophages; experiment: Macrophage phagocytosis assay; assay type: cell-based, mice; details: for Macrophage spreading (visually scored): yeast-treated macrophages, 72 h
Method: The phagocytic activity of peritoneal macrophages was assessed after staining with Azur-Eosin with Romanovsky’s modifications as reported by us previously with a light microscopy using a Mikmed-6 (LOMO, Saint Petersburg, Russia) equipped with a digital camera.
as §5
(Figure 3). The mean number of phagocytosed particles per cell was […]. […] Macrophage spreading was registered and visually scored as a phenotypic marker of cell activation phagocytic capacity.

[10] = system: C57bl/6j mice; experiment: LPS-induced acute lung injury model; assay type: in vivo; details: for Motor activity, open field test: 2 and 22 h after LPS
Method: Prior to the experiment, C57BL/6J mice were randomized according to body weight and motor activity in an open field test. […] Animals of the control group were injected with an equal volume of the vehicle. Animals were anesthetized with isoflurane inhalation until the breathing rate decreased 1 h later. Mice were suspended by the front incisors on an inclined surgical table; the tongue was pulled out with narrow curved tweezers, and 1 mg/mL of E. coli O127:B8 LPS (Sigma-Aldrich, Israel) in 1 mL/kg sterile saline was injected into the back of the oropharynx to allow aspiration. Intact animals received an equal volume of sterile saline in a similar way.
The open field test was performed with the NPO “Open Science” (Russia) arena of 44 cm diameter and 32 cm wall height under 300 lux lighting as reported by us previously.
Mice were anesthetized with 500 mg/kg chloral hydrate (Sigma-Aldrich, Germany) intraperitoneally 24 h after LPS administration. Blood and bronchoalveolar lavage (BAL) sampling was performed as described in [13]. Leukocyte counts and the lung permeability index were determined as described by us previously.
Histological and immunohistological assessment of tissue sections was performed in a semi-quantitative way on paraffin sections after hematoxylin and eosin staining with a light microscope (Zeiss, Germany) with double-blinding. The degree of inflammation was determined as previously reported.
Lung injury was assessed 24 h later based on behavioral, biochemical, cytological, and morphological alterations.

[11] = 4a 50 mg/kg (30 mg/kg in source) i.p.
[12] = 4a 50 mg/kg (30 mg/kg in source) i.p., 24 h after LPS
[13] = dexamethasone 5 mg/kg i.p., 24 h after LPS

| IC50 [2] [µM] | inhibition at 0.01 µM ([4]; rabbit platelets) [%] | IC50 [7] [µM] | melting point [°C] | SMILES | inhibition at 100 µM [1] [%] | CC50 [3] [µM] | Max IOP Reduction [6] [%] | also measured |
| --- | --- | --- | --- | --- | --- | --- | --- | --- |
| > 100 | 37.2 ± 5.97 | > 100 | 336 to 338 | N=C(N)NC(=O)Cn1c(=O)c2ccccc2n(CC(=O)NC(=N)N)c1=O [Compound 3a, 2,2’-(2,4-Dioxoquinazoline-1,3(2H,4H)-diyl)bis(N-carbamimidoylacetamide)] | 44.3 ± 14.3 | > 100 | 10.08 ± 5.8 | NHE-1 IC50 ([4]; rabbit platelets): nanomolar range; IOP-lowering activity reduction relative to 4a [6]: 3 fold |
| > 100 | 10.2 ± 3.72 | > 100 | > 400 | N=C(N)NC(=O)Cn1c(=O)c2cc(Br)ccc2n(CC(=O)NC(=N)N)c1=O [Compound 3b, 2,2’-(6-Bromo-2,4-dioxoquinazoline-1,3(2H,4H)-diyl)bis(N-carbamimidoylacetamide)] | 46.4 ± 9.2 | > 100 | 24.17 ± 5.05 |  |
| 73 ± 7.83 | 29.4 ± 4.4 | 51.8 ± 1.65 | 314 to 318 | Nc1nnc(Cn2c(=O)c3ccccc3n(Cc3nnc(N)[nH]3)c2=O)[nH]1 [Compound 4a, 1,3-Bis[(5-amino-4H-1,2,4-triazol-3-yl)methyl]quinazoline-2,4(1H,3H)-dione] | 39.3 ± 11.9 | > 100 | 28.25 ± 7.92 | Cell viability (LDH assay) [8]: slightly decreased; Decrease of the mean number of phagocytosed particles ([9]; 72 h of incubation): 23%; Phagocytic activity ([9]; 72 h of incubation): insignificantly influenced; Macrophage spreading (visually scored) [9]: marginally reduced spreading; IC50 ([4]; rabbit platelets): 0.324 µM; NHE-1 potency relative to amiloride ([4]; ratio of IC50 vs amiloride): exceeding amiloride by four times; Immobilization Time ([5]; 4.0 mg/kg): 164.4 ± 23.19 s; Exploratory activity, open field test [10, 11]: comparably improved exploratory activity; Motor activity, open field test [10, 11]: restored the motor activity of animals; CD68+ macrophage accumulation in lung tissue (immunostaining) [10, 12]: effectively limited LPS-induced inflammation; Lung tissue histology (hematoxylin and eosin) [10, 12]: reduced LPS-induced inflammation in mouse lung tissue; Plasma IL-6 [10, 12]: significantly reduced plasma IL-6; Pulmonary (alveolar) vessel permeability [10, 12]: preserved pulmonary vessels’ permeability; Segmented neutrophils in BAL [10, 12]: significantly ameliorated the accumulation of segmented neutrophils; also recorded: most pronounced inhibition of the neutrophil migration |
| 71 ± 4.89 | 16.2 ± 3.75 | 64.8 ± 4.31 | > 400 | Nc1nnc(Cn2c(=O)c3cc(Br)ccc3n(Cc3nnc(N)[nH]3)c2=O)[nH]1 [Compound 4b, 1,3-Bis[(5-amino-4H-1,2,4-triazol-3-yl)methyl]-6-bromoquinazoline-2,4(1H,3H)-dione] | 47.4 ± 8.9 | > 100 | 15.45 ± 9.39 | Immobilization Time ([5]; 4.9 mg/kg): 168.2 ± 19.52 s; IOP-lowering activity reduction relative to 4a [6]: 2 fold |

Continued, compound first:

| SMILES | IC50 [2] [µM] | inhibition at 0.01 µM ([4]; rabbit platelets) [%] | IC50 [7] [µM] | melting point [°C] | inhibition at 100 µM [1] [%] | CC50 [3] [µM] | Max IOP Reduction [6] [%] | also measured |
| --- | --- | --- | --- | --- | --- | --- | --- | --- |
| CC(=O)Oc1ccccc1C(=O)O [Acetylsalicylic acid, acetylsalicylic acid, reference compound] |  |  |  |  | 31.6 ± 4.6 |  |  |  |
| N=C(N)NC(=O)c1nc(Cl)c(N)nc1N [Amiloride, amiloride, reference compound] | 0.62 ± 0.05 | 5.39 ± 1.82 |  |  | 67.6 ± 1 | > 100 | 18.39 ± 14.58 | IC50 ([4]; rabbit platelets): 1.23 µM; Immobilization Time ([5]; 2.6 mg/kg): 172.7 ± 8.54 s |
| CN(C)CCC=C1c2ccccc2CCc2ccccc21 [Amitriptyline, amitriptyline] |  |  |  |  |  |  |  | Immobilization Time ([5]; 10 mg/kg): 50.2 ± 12.71 s |
| C[C@@H]1C[C@H]2[C@@H]3CCC4=CC(=O)C=C[C@]4(C)[C@@]3(F)[C@@H](O)C[C@]2(C)[C@@]1(O)C(=O)CO [Dexamethasone, dexamethasone, reference compound] | 0.003 ± 0.001 |  | 0.003 ± 0.001 |  |  | > 100 |  | Cell viability (LDH assay) [8]: did not influence cell viability; Mean number of phagocytosed particles per cell ([9]; 72 h of incubation): 59%; Phagocytic activity ([9]; 72 h of incubation): 41 % from control; Macrophage spreading (visually scored) [9]: more evident; Exploratory activity, open field test ([10]; dexamethasone 5 mg/kg i.p.): comparably improved exploratory activity; Motor activity, open field test ([10]; dexamethasone 5 mg/kg i.p.): reduced the LPS-induced motor and behavioral alterations; CD68+ macrophage accumulation in lung tissue (immunostaining) [10, 13]: significantly reduced this phenomenon; Plasma IL-6 [10, 13]: significantly reduced plasma IL-6; Segmented neutrophils in BAL [10, 13]: significantly ameliorated the accumulation of segmented neutrophils |
| CN(C)CCCN1c2ccccc2CCc2ccccc21 [Imipramine, imipramine] |  |  |  |  |  |  |  | Immobilization Time ([5]; 8 mg/kg): 112.5 ± 20.56 s |
| N=C(N)NC(=O)c1cnn(-c2cccc3ncccc23)c1C1CC1 [Zoniporide, zoniporide, reference compound] |  |  | > 100 |  |  | 407 ± 27.6 |  | EC50 ([2]; printed as EC50 in the IC50 column, read-out: NO Synthesis EC50 ± SE): 15.6 µM |
